Holding throughout (test): growth of human tumour cells (NCI), 48 h
Assay [1] has as its system RPMI-8226.
The subject of assay [2] is MOLT-4.
The test system of assay [3] is UACC-257.
The test system of assay [4] is KM12.
The subject of assay [5] is NCI/ADR-RES.
Assay [6] relates to LOX IMVI.
Assay [7] relates to MDA-MB-435.
For assay [8], the system named is HOP-62.
Assay [9] has as its system UACC-62.
The subject of assay [10] is U-251.
Assay [11] deals with HCT-15.
In assay [12] the test system is HCC 2998.
In assay [13] the test system is SK-MEL-28.
In assay [14] the test system is SW-620.
Assay [15] has as its system SNB-19.
Assay [16] deals with MDA-MB-231.
For assay [17], the system named is OVCAR-3.
In assay [18] the test system is DU-145.
Assay [19] deals with MCF7.
For assay [20], the system named is SK-MEL-2.

Results on eight compounds are retold here after ChEMBL document CHEMBL1201862, “PubChem BioAssay data set” (2004).

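Step 1: Grow cells in 96-well plates. Step 2: Expose to compound for 48 hours at 5 concentrations. Step 3: Interpolate endpoints linearly; if unreached, use highest concentration. GI50 = concentration required for 50% inhibition of growth.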 Calls of active or inactive are those of the source. Cut-off read from the data, not from the text of the source: active = GI50 up to about 1.1 µM and inactive = higher.

As for `Cc1nc2ccccc2c(=O)n1NC(=O)c1ccccc1[N+](=O)[O-]`, the GI50 in assay [1], in assay [2], in assay [3], in assay [4], in assay [5] and in [6] was > 100 µM (inactive) each time. The GI50 in assay [7] was > 100 µM (inactive); in assay [8], > 100 µM (inactive); in assay [9], > 100 µM (inactive); in [10] it was > 100 µM (inactive); in [11], over 100 µM; in assay [12] it was > 100 µM (inactive). For the same compound, the GI50 in [13], in assay [14], in [15], in [16], in assay [17] and in assay [18] was > 100 µM (inactive) in each case. Further, the GI50 in [19] is > 100 µM (inactive).

Consider `COc1ccc(/C=C\c2cc(OC)c(OC)c(OC)c2)cc1OC(=O)CC(N)C(=O)O` (centres undefined), for which the GI50 in assay [1] was 0.00148 µM (active); in assay [2] it was 0.00366 µM (active); in assay [3], 0.00171 µM (active); in assay [4], 0.00365 µM (active); in assay [5], 0.000224 µM (active); in assay [6], 0.00254 µM (active). In addition, the GI50 in assay [7] is 0.000146 µM (active); in assay [8], 0.00382 µM (active); in [9], 0.00113 µM (active); in assay [10], 0.00262 µM (active); in [11] it was 0.00258 µM; in [12], 0.106 µM (active). In addition, the GI50 in assay [13] is 0.000597 µM (active); in assay [14], 0.00135 µM (active); in [15], 0.0118 µM (active); in [16], 0.00119 µM (active); in assay [17], 0.00224 µM (active); in assay [18], 0.00293 µM (active). For the same compound, the GI50 in assay [19] was 0.00733 µM (active).

For the compound `CC[C@]1(Cc2ccc(OC)c(OC)c2)C=[N+]([O-])O[C@H](OC2CCCC2(c2ccccc2)c2ccccc2)[C@@H]1OC(C)=O` (some centres undefined), the GI50 in [2] is 2.67 µM (inactive); in [3], 4.61 µM (inactive); in assay [4], 2.84 µM (inactive); in assay [5], 2.59 µM (inactive); in assay [6], 2 µM (inactive); in assay [7], 2.41 µM (inactive). In addition, the GI50 in assay [8] is 12.4 µM (inactive); in assay [9], 2.68 µM (inactive); in assay [10] it was 7.94 µM (inactive); in assay [11], 3.37 µM; in assay [12], 2.74 µM (inactive); in assay [13], 1.81 µM (inactive). The GI50 is 3.44 µM (inactive) in assay [14]; 5.89 µM (inactive) in [15]; 11 µM (inactive) in assay [16]; 1.65 µM (inactive) in assay [17]; 3.03 µM (inactive) in assay [18]; 2.43 µM (inactive) in assay [19]. The GI50 in assay [20] is 4.62 µM (inactive).

On to `COC(=O)c1sc(=S)sc1SCc1ccccc1CSc1sc(=S)sc1C(=O)OC`, for which the GI50 in assay [2], in [3], in [4], in assay [5], in assay [6] and in assay [7] was > 100 µM (inactive) in each case. The GI50 in assay [8] is 85.7 µM (inactive); in [9] it was > 100 µM (inactive); in assay [10], > 100 µM (inactive); in assay [11], over 100 µM; in assay [12] it was > 100 µM (inactive); in [13], > 100 µM (inactive). The GI50 in assay [14] was > 100 µM (inactive); in assay [15], 77.1 µM (inactive); in assay [16] it was > 100 µM (inactive); in assay [17] it was > 100 µM (inactive); in [18] it was > 100 µM (inactive); in [19] it was > 100 µM (inactive). In addition, the GI50 in assay [20] was > 100 µM (inactive).

For the compound `CC1(C)CC(=O)C2=C(C1)NC(SCC(=O)O)=C(C#N)C2c1ccc(Br)cc1` (centres undefined), the GI50 in [3], in assay [4], in [5], in assay [6], in [7] and in assay [8] was > 100 µM (inactive) each time. The GI50 was > 100 µM (inactive) in [9]; > 100 µM (inactive) in [10]; over 100 µM in [11]; > 100 µM (inactive) in [12]; > 100 µM (inactive) in [13]; > 100 µM (inactive) in assay [14]. For the same compound, the GI50 in assay [15], in [16], in assay [17], in assay [18], in assay [19] and in assay [20] was > 100 µM (inactive) each time.

In the case of `N[C@H](C(=O)O)[C@@H]1CC(Br)=NO1`, the GI50 was 22.6 µM (inactive) in [2]; 54.2 µM (inactive) in [3]; 10.6 µM (inactive) in assay [4]; 39.7 µM (inactive) in assay [5]; > 100 µM (inactive) in [6]; 19.7 µM (inactive) in assay [7]. The GI50 was 12.2 µM (inactive) in assay [8]; 27.7 µM (inactive) in [9]; 10.4 µM (inactive) in assay [10]; 6.38 µM in assay [11]; 22.7 µM (inactive) in assay [12]; 32.7 µM (inactive) in assay [13]. Besides, the GI50 was 5.87 µM (inactive) in assay [14]; 36.4 µM (inactive) in assay [15]; > 100 µM (inactive) in assay [16]; 16.5 µM (inactive) in [17]; 5.57 µM (inactive) in assay [18]; 3.42 µM (inactive) in assay [19]. For the same compound, in [20], the GI50 was > 91.8 µM (inactive).

`CC(C)(C)C1CC[C@H](O)[C@H]([C@@H](O)CC2CC(=O)N(c3ccccc3)C(=O)C2)C1` (some centres undefined): the GI50 in assay [1] was 46.2 µM (inactive); in [2], 38.9 µM (inactive); in [3], 89.9 µM (inactive); in assay [4] it was 47.5 µM (inactive); in assay [5], 67.9 µM (inactive); in assay [6], 49.3 µM (inactive). In addition, the GI50 in [7] was 55.2 µM (inactive); in assay [8], > 100 µM (inactive); in [9], 26.6 µM (inactive); in assay [10] it was 55.8 µM (inactive); in assay [11], 56.4 µM; in assay [12], 27.9 µM (inactive). Further, the GI50 in [13] was > 100 µM (inactive); in assay [14] it was > 100 µM (inactive); in assay [15], > 100 µM (inactive); in assay [16], 67.3 µM (inactive); in assay [17], 50.9 µM (inactive); in assay [18], 55.3 µM (inactive). The GI50 in [19] was 44.2 µM (inactive).

For the compound `O=C(NCCCCN(CCCNC(=O)C(F)(F)F)Cc1ccc2ccccc2c1)C(F)(F)F`, the GI50 in assay [1] was > 10 µM (inactive); in [2], 24.2 µM (inactive); in assay [3], 17.5 µM (inactive); in assay [4] it was 17.5 µM (inactive); in assay [5] it was 14.5 µM (inactive); in assay [6], 14.1 µM (inactive). The GI50 in assay [7] is 19.3 µM (inactive); in assay [9], 19.1 µM (inactive); in [10] it was 26.4 µM (inactive); in assay [11], 17.3 µM; in assay [12], 13.9 µM (inactive); in assay [13], 16.7 µM (inactive). For the same compound, the GI50 is 15.3 µM (inactive) in [14]; 14 µM (inactive) in assay [15]; 16.7 µM (inactive) in assay [16]; 21 µM (inactive) in assay [18]; 14.7 µM (inactive) in assay [19].
